According to paper PMC5515891 (Scientific Reports, 2017):

Target: Opc (Neisseria meningitidis, UniProt Q7DDI3)
Format: binding
Details: Opc+ outer membrane preparation (4 mg/ml, PBS) in cell, 100 µM glycan in syringe; Opc- preparation and PBS controls subtracted

Sequence of Opc (Q7DDI3 20-272 limits assumed): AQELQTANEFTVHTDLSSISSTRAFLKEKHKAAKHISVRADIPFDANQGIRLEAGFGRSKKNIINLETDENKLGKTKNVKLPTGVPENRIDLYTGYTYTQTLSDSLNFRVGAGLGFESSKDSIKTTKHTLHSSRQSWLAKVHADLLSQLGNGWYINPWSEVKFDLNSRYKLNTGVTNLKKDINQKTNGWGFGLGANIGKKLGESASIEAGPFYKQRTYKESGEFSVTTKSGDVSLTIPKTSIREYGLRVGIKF

Structure (SMILES)	Kd
CC(=O)N[C@H]1[C@H]([C@H](O)[C@H](O)CO)O[C@@](OC[C@H]2O[C@@H](O[C@H]3[C@H](O)[C@@H](O)C(O)O[C@@H]3CO)[C@H](O)[C@@H](O)[C@H]2O)(C(=O)O)C[C@@H]1O (stereo partly drawn) [11B, Neu5Acα2-6Galβ1-4Glc]	713 ± 140 nM
C[C@@H]1O[C@@H](O[C@H]2C(O)O[C@H](CO)[C@H](O)[C@@H]2O)[C@@H](O)[C@H](O)[C@@H]1O (stereo partly drawn) [compound 71, Fucα1-2Galβ]	2950 ± 590 nM
CC(=O)N[C@H]1[C@H](O[C@H]2[C@@H](O)[C@@H](CO)O[C@@H](O[C@H]3[C@H](O)[C@@H](O)C(O)O[C@@H]3CO)[C@@H]2O)O[C@H](CO)[C@@H](O[C@@H]2O[C@H](CO)[C@H](O)[C@H](O)[C@H]2O)[C@@H]1O (stereo partly drawn) [compound 383, Galβ1-4GlcNAcβ1-3Galβ1-4Glcβ]	1770 ± 690 nM
